Here are results for 47 compounds from patent US20060264460A1 (Wyeth, priority 2005, published 2006).

The structures appear in SMILES notation.

In general, IC50 refers to the concentration needed to halve the response being measured. A high value points to weaker potency in that assay.

T1 sequence (P41279 30-398): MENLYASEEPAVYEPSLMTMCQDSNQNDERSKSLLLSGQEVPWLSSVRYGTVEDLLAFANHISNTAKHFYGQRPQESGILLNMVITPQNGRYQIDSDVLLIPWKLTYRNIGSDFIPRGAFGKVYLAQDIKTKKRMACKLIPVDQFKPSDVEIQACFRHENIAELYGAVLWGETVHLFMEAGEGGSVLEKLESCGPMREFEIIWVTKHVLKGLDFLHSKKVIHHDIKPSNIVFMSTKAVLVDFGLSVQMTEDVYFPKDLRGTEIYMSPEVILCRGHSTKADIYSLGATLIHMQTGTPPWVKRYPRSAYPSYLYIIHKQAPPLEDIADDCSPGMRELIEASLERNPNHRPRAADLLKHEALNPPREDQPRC

One experiment addresses T1, human Cot/Tpl2 kinase (Homo sapiens, UniProt P41279).
T1 construct: human Cot/Tpl2 kinase construct encoding residues 30-398; 6His (N); made in house; host or cells: Sf9 insect cells, baculovirus system (BD Biosciences)
The experiment can be described thus: Tpl2/Cot kinase assay: GST-MEK1 phosphorylation detected by ELISA (DELFIA Eu). Type of experiment: biochemical. The settings on record: 0.4 nM Tpl2, 35 nM GST-MEK1, 50 uM ATP, 1 h at 30° C. In a few lines:
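Substrate phosphorylation (GST-MEK1 Ser217/221) quantified by DELFIA europium ELISA, yielding IC50 values. Reaction: 1 h at 30° C, pH 7.2 MOPS buffer, 50 uM ATP, 35 nM GST-MEK1, 0.4 nM monomeric His-Tpl2 purified from Sf9 cells, compounds at 1% final DMSO; stopped with EDTA.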
(In an ELISA, binding on a coated surface is turned into a signal by an enzyme label.)
Regarding `N#Cc1cnc2c(Br)cc(NCc3cn(CC(O)CN4CCOCC4)nn3)cc2c1Nc1ccc(F)c(Cl)c1` (centres unmarked) [Example 319, 8-bromo-4-[(3-chloro-4-fluorophenyl)amino]-6-({[1-(2-hydroxy-3-morpholin-4-ylpropyl)-1H-1,2,3-triazol-4-yl]methyl}amino)quinoline-3-carbonitrile], the midpoint of inhibition, the IC50, lay at 210 nM. Still for that read-out and setting: as for `COCC(=O)NCCn1cc(CNc2cc(Cl)c3ncc(C#N)c(Nc4ccc(F)c(Cl)c4)c3c2)nn1` [Example 219, N-(2-(4-((8-chloro-4-(3-chloro-4-fluorophenylamino)-3-cyanoquinolin-6-ylamino)methyl)-1H-1,2,3-triazol-1-yl)ethyl)-2-methoxyacetamide], the figure is 65 nM; as for `N#Cc1cnc2c(Br)cc(NCc3cccnc3)cc2c1Nc1cccc(Cl)c1` [Example 70, 8-bromo-4-(3-chlorophenylamino)-6-(pyridin-3-ylmethylamino)quinoline-3-carbonitrile], 36 nM. Still for that read-out and setting: under `Cn1ccnc1CNc1cc(Br)c2ncc(C#N)c(Nc3ccc(F)c(Cl)c3)c2c1` [Example 220, 8-bromo-4-[(3-chloro-4-fluorophenyl)amino]-6-{[(1-methyl-1H-imidazol-2-yl)methyl]amino}quinoline-3-carbonitrile] stands 26 nM; under `COc1cc(NCc2cccnc2)cc2c(Nc3ccc(C)c(O)c3)c(C#N)cnc12` [Example 32, 4-(3-Hydroxy-4-methyl-phenylamino)-8-methoxy-6-[(pyridin-3-ylmethyl)-amino]-quinoline-3-carbonitrile], greater than 40000 nM; under `N#Cc1cnc2c(Br)cc(NCc3nn[nH]c3-c3cccc(F)c3)cc2c1Nc1ccc(F)c(Cl)c1` [Example 119, 8-bromo-4-[(3-chloro-4-fluorophenyl)amino]-6-({[5-(3-fluorophenyl)-1H-1,2,3-triazol-4-yl]methyl}amino)quinoline-3-carbonitrile], 350 nM. In the case of `N#Cc1cnc2ccc(NC3CCCC3c3ccccn3)cc2c1Nc1ccc(F)c(Cl)c1` (centres unmarked) [Example 256, 4-[(3-chloro-4-fluorophenyl)amino]-6-[(2-pyridin-2-ylcyclopentyl)amino]quinoline-3-carbonitrile], the midpoint of inhibition, the IC50, lay at 310 nM. Compound `CN(Cc1cn(CCC2CCCN2C)nn1)c1cc(Cl)c2ncc(C#N)c(Nc3ccc(F)c(Cl)c3)c2c1` (centres unmarked) [Example 321, 8-chloro-4-(3-chloro-4-fluorophenylamino)-6-(methyl((1-(2-(1-methylpyrrolidin-2-yl)ethyl)-1H-1,2,3-triazol-4-yl)methyl)amino)quinoline-3-carbonitrile] returned an IC50 of 490 nM.

In the case of `Cc1c(CNc2ccc3ncc(C#N)c(Nc4ccc(F)c(Cl)c4)c3c2)ncn1C` [Example 128, 4-(3-chloro-4-fluorophenylamino)-6-((1,5-dimethyl-1H-imidazol-4-yl)methylamino)quinoline-3-carbonitrile], the IC50 is 3.2 nM.

In the case of `N#Cc1cnc2c(C(F)(F)F)cc(NCc3cncnc3)cc2c1Nc1ccc(F)c(Cl)c1` [Example 240, 4-[(3-chloro-4-fluorophenyl)amino]-6-[(pyrimidin-5-ylmethyl)amino]-8-(trifluoromethyl)quinoline-3-carbonitrile], the IC50 is 190 nM.

On to `COC(=O)c1nc[nH]c1CNc1cc(Br)c2ncc(C#N)c(Nc3ccc(F)c(Cl)c3)c2c1` [Example 110, Methyl 5-((8-bromo-4-(3-chloro-4-fluorophenylamino)-3-cyanoquinolin-6-ylamino)methyl)-1H-imidazole-4-carboxylate], for which 87 nM corresponded to half-maximal inhibition (IC50). In turn, `N#Cc1cnc2c(Cl)cc(NCC3CCN(Cc4cccnc4)CC3)cc2c1Nc1ccc(F)c(Cl)c1` [Example 323, 8-chloro-4-(3-chloro-4-fluorophenylamino)-6-((1-(pyridin-3-ylmethyl)piperidin-4-yl)methylamino)quinoline-3-carbonitrile] showed an IC50 of 1360 nM. As for `N#Cc1cnc2ccc(NCc3cccc(Cl)c3)cc2c1Nc1ccc(F)c(Cl)c1` [Example 152, 6-(3-chlorobenzylamino)-4-(3-chloro-4-fluorophenylamino)quinoline-3-carbonitrile], the IC50 was determined as 1300 nM. `N#Cc1cnc2ccc(NCc3cccc[n+]3[O-])cc2c1Nc1ccc(F)c(Cl)c1` [Example 39, 4-(3-Chloro-4-fluoro-phenylamino)-6-[(1-oxy-pyridin-2-ylmethyl)-amino]-quinoline-3-carbonitrile] returned an IC50 of 11 nM.

As for `N#Cc1cccc(CNc2ccc3ncc(C#N)c(NC4CCCCCC4)c3c2)c1` [Example 247, 6-[(3-Cyanobenzyl)amino]-4-(cycloheptylamino)quinoline-3-carbonitrile], 2500 nM corresponded to half-maximal inhibition (IC50). For `CN(C)C(=O)Cn1ccnc1CNc1ccc2ncc(C#N)c(Nc3ccc(F)c(Cl)c3)c2c1` [Example 140, 2-(2-((4-(3-chloro-4-fluorophenylamino)-3-cyanoquinolin-6-ylamino)methyl)-1H-imidazol-1-yl)-N, N-dimethylacetamide], the midpoint of inhibition, the IC50, lay at 20 nM.

The experiment is the same for the next values; noted with them: Table 2; Tpl2/Cot kinase, GST-MEK1 substrate, 50 uM ATP.
`Cn1cc(CNc2ccc3ncc(C#N)c(Nc4ccc(F)c(F)c4)c3c2)ccc1=O` [Example 343]: inhibition was half-maximal at 1040 nM (IC50).

Regarding `N#Cc1cnc2c(Br)cc(NCc3cn(CCO)nn3)cc2c1Nc1ccc(F)c(Cl)c1` [Example 510], half-maximal inhibition (IC50) was put at 28 nM. In turn, `N#Cc1cnc2c(O)cc(N)cc2c1Nc1ccc(F)c(Cl)c1` [Example 421] gave an IC50 of 10600 nM. Compound `N#Cc1cnc2c(Cl)cc(NCC(=O)NCc3ccccn3)cc2c1Nc1ccc(F)c(Cl)c1` [Example 607] gave an IC50 of 330 nM. In turn, `Cn1nc(CNc2cc(Br)c3ncc(C#N)c(Nc4ccc(F)c(Cl)c4)c3c2)cc1-c1ccccc1` [Example 453] gave an IC50 greater than 40000 nM. The compound `N#Cc1cnc2c(Cl)cc(NCC(=O)c3ccccc3)cc2c1Nc1ccc(F)c(Cl)c1` [Example 447] registered an IC50 of 870 nM.

In the case of `CN(C)Cc1cn(C2CCCC2Nc2cc(Cl)c3ncc(C#N)c(Nc4ccc(F)c(Cl)c4)c3c2)nn1` (centres unmarked) [Example 636], the IC50 was greater than 3000 nM. `N#Cc1cnc2ccc(NCc3ccc[n+]([O-])c3)cc2c1Nc1ccc(F)c(Cl)c1` [Example 384] displayed an IC50 of 130 nM. On to `CN1CCC(CCn2cc(CNc3cc(Br)c4ncc(C#N)c(Nc5ccc(F)c(Cl)c5)c4c3)nn2)CC1` [Example 520], for which half-maximal inhibition (IC50) required 44 nM. Same read-out and setting: as for `CC(c1ccccc1)n1cc(CNc2cc(Cl)c3ncc(C#N)c(Nc4ccc(F)c(Cl)c4)c3c2)nn1` (centres unmarked) [Example 586], the figure is 96 nM; as for `CC(C)(C)OC(=O)N1CCCN(CCCn2cc(CNc3cc(Br)c4ncc(C#N)c(Nc5ccc(F)c(Cl)c5)c4c3)nn2)CC1` [Example 589], 520 nM; as for `CS(=O)(=O)Cn1cc(CNc2cc(Br)c3ncc(C#N)c(Nc4ccc(F)c(Cl)c4)c3c2)nn1` [Example 531], 33 nM.

Take `CN(C)CCNC(=O)CNc1cc(Cl)c2ncc(C#N)c(Nc3ccc(F)c(Cl)c3)c2c1` [Example 605]: the IC50 was 1600 nM.

`N#Cc1cnc2c(Br)cc(NCc3cncn3CCN3CCOCC3)cc2c1Nc1ccc(F)c(Cl)c1` [Example 482] had a half-inhibitory concentration (IC50) of 160 nM.

The same experiment, now with this note: Tpl2/Cot kinase, GST-MEK1 substrate, 50 uM ATP.
`COCCNCC(=O)N1CCCC(CNc2cc(Cl)c3ncc(C#N)c(Nc4ccc(F)c(Cl)c4)c3c2)C1` (centres unmarked) [Example 904] registered an IC50 of 260 nM. `CCN1CCCCC1CNc1cc(Cl)c2ncc(C#N)c(Nc3ccc(F)c(Cl)c3)c2c1` (centres unmarked) [Example 870]: the IC50 turned out to be 1970 nM. As to `N#Cc1cnc2c(Cl)cc(NCc3cn(Cc4ccnc(C(F)(F)F)c4)nn3)cc2c1Nc1ccc(F)c(Cl)c1` [Example 883], the IC50 was determined as 80 nM. Same read-out and setting: under `CC(=O)N1CCC(CNc2cc(Cl)c3ncc(C#N)c(Nc4ccc(F)c(Cl)c4)c3c2)CC1` [Example 866] stands 260 nM; under `N#Cc1cnc2c(Br)cc(NCc3cn(CCOCCOCCO)nn3)cc2c1Nc1ccc(F)c(Cl)c1` [Example 741], 140 nM; under `N#Cc1cnc2c(Cl)cc(NCc3cn(CC(=O)NCc4cccnc4)nn3)cc2c1Nc1ccc(F)c(Cl)c1` [Example 819], 0.8 nM.

`N#Cc1cnc2c(Br)cc(NCc3cn(CCO)nn3)cc2c1Nc1ccc(F)c(Cl)c1` [Example 686]: half-maximal inhibition (IC50) was put at 28 nM. The compound `N#Cc1cnc2c(Cl)cc(NC3CCCC3n3cc(CCO)nn3)cc2c1Nc1ccc(F)c(Cl)c1` (centres unmarked) [Example 803] came in with a half-inhibitory concentration (IC50) of 67 nM. Same read-out and setting: under `N#Cc1cnc2c(Cl)cc(NCC3CCCN(C(=O)CN4CCCCCC4)C3)cc2c1Nc1ccc(F)c(Cl)c1` (centres unmarked) [Example 903] stands 620 nM.

The experiment is the same for the next values; noted with them: Tpl2/Cot kinase, GST-MEK1 substrate, 50 uM ATP, 1 h at 30° C.; Table 2.
Compound `CC(C)(C)OC(=O)N1CCC(n2cc(CNc3cc(Cl)c4ncc(C#N)c(NC5CCC6(CCCCC6)CC5)c4c3)nn2)CC1` [Example 973] returned an IC50 greater than 3000 nM. Same read-out and setting: as for `CC#CCn1cc(CNc2cc(Cl)c3ncc(C#N)c(Nc4ccc(F)c(Cl)c4)c3c2)nn1` [Example 995], the figure is 240 nM. In turn, `CC(C)N1CCC(n2cc(CNc3cc(Cl)c4ncc(C#N)c(NC5CCC5)c4c3)nn2)CC1` [Example 999] gave an IC50 of 130 nM. On to `CN(C)CCn1cc(CNc2cc(Cl)c3ncc(C#N)c(NC4CCCC4)c3c2)nn1` [Example 946], for which the IC50 turned out to be 590 nM. In turn, `CC(C)N1CCC(c2cc(CNc3cc(Br)c4ncc(C#N)c(Nc5ccc(F)c(Cl)c5)c4c3)[nH]n2)CC1` [Example 1044] returned an IC50 of 860 nM.

In turn, `CN(C)CCn1cc(CNc2cc(Cl)c3ncc(C#N)c(NC4CCC4)c3c2)nn1` [Example 956] showed an IC50 of 730 nM. The compound `N#Cc1cnc2c(Cl)cc(N(Cc3cn(C4CCN(CC5CC5)CC4)nn3)CC3CC3)cc2c1Nc1ccc(F)c(Cl)c1` [Example 1028] yielded an IC50 of 410 nM. Compound `CC(C)(C)OC(=O)N1CCC(O)(c2cncc(CNc3cc(Cl)c4ncc(C#N)c(Nc5ccc(F)c(Cl)c5)c4c3)c2)CC1` [Example 1031] showed a half-inhibitory concentration (IC50) of 160 nM.
